Broadly, the MIC50 is an inhibitory concentration at the 50% level, which refers to growth in some studies and to a panel of isolates in others. One may read the MIC80 as the lowest concentration that inhibits either 80% of growth or 80% of the strains tested, depending on the study.

Data on five compounds can be found in patent US20090130236A1, “ANTI-MICROBIAL AGENT AND ANTI-MICROBIAL COMPOSITION” (Hououdou Co., Ltd., priority 2002, published 2009).

Molecules are shown by their SMILES. Converted amounts (≈) assume the structure as drawn. Read-outs that look alike come from different tables or passages of the source.

In assay [1] the test system is Staphylococcus spp. (44 Strains). In words: MIC, agar plate dilution, Test Example 22. The class given is cell-based. The text has this: Strains Used: There were used 44 strains of Staphylococcus spp. […] Sterilized distilled water was used in the dilution of the solution.
Assay [2] relates to clinically isolated 26 strains of P. acnes. In words: MIC, agar plate dilution, Test Example 10. The assay is classed as cell-based, Propionibacterium acnes. The following applies: reference data, not obtained through tests simultaneously carried out.
The mark [3] stands for this setting: Staphylococcus, read-out: MIC50.
The mark [4] stands for this setting: Staphylococcus, read-out: MIC80.
[5] abbreviates: Cutibacterium acnes, read-out: MIC50.
The mark [6] stands for this setting: Cutibacterium acnes, read-out: MIC80.

As to `CCC[C@@H]1C[C@@H](C(=O)N[C@@H]([C@H]2O[C@H](SC)[C@H](O)[C@@H](O)[C@H]2O)[C@H](C)Cl)N(C)C1` [CLDM, Clindamycin], in assay [1], the “MIC50” value is 0.10 µg/mL (≈ 0.235 µM) and the “MIC80” value was above 100 µg/mL. In addition, in assay [2], the “MIC50” value was 0.10 µg/mL (≈ 0.235 µM) and the “MIC80” value is 0.19 µg/mL (≈ 0.447 µM).
Turning to `CN(C)c1ccc(O)c2c1C[C@H]1C[C@H]3[C@H](N(C)C)C(O)=C(C(N)=O)C(=O)[C@@]3(O)C(O)=C1C2=O` [MINO, Minocycline], the MIC50 came to 0.1 µg/mL (≈ 0.219 µM) in assay [1] (setting [3]) and 0.05 µg/mL (≈ 0.109 µM) in assay [2] (setting [5]). The MIC80 in assay [1] (setting [4]) and in assay [2] (setting [6]) was 0.1 µg/mL (≈ 0.219 µM) throughout.
For the compound `CC1CCc2c(N3CCC(O)CC3)c(F)cc3c(=O)c(C(=O)O)cn1c23` (centres unmarked) [NDFX, Nadifloxacin], the MIC50 was 0.05 µg/mL (≈ 0.139 µM) in assay [1] (setting [3]) and 0.19 µg/mL (≈ 0.527 µM) in assay [2] (setting [5]). Also, the values for the MIC80 in assay [1] (setting [4]) and in assay [2] (setting [6]) were 0.78 µg/mL (≈ 2.16 µM) and 0.19 µg/mL (≈ 0.527 µM), respectively.
In the case of `CC1COc2c(N3CCN(C)CC3)c(F)cc3c(=O)c(C(=O)O)cn1c23` (centres unmarked) [OFLX, Ofloxacin], the MIC50 in assay [1] (setting [3]) and in assay [2] (setting [5]) was 0.39 µg/mL (≈ 1.08 µM) each time. For the same compound, the results for the MIC80 in assay [1] (setting [4]) and in assay [2] (setting [6]) were 0.78 µg/mL (≈ 2.16 µM) and 0.39 µg/mL (≈ 1.08 µM), respectively.
On to `CN(C)[C@@H]1C(=O)C(C(N)=O)=C(O)[C@@]2(O)C(=O)C3=C(O)c4c(O)cccc4[C@@](C)(O)[C@H]3C[C@@H]12` [TC, Tetracycline], for which, in assay [1], the “MIC50” value came out at 0.39 µg/mL (≈ 0.878 µM) and the “MIC80” value amounted to 25 µg/mL (≈ 56.3 µM). In addition, in assay [2], the “MIC50” value is 0.19 µg/mL (≈ 0.428 µM) and the “MIC80” value turned out to be 0.19 µg/mL (≈ 0.428 µM).
